What was measured:
[1] = system: human nasal epithelium; conditions: in vivo
[2] = system: food intake; conditions: injection; less than usual, on average; cited from earlier work
[3] = cited from earlier work
[4] = system: Candida albicans (ATCC No. 10231); assay: Antimicrobial activity of alkylglycoside solutions, plate count log reduction; type: cell-based; conditions: […]
From the text: (§1) 20110-2209. The viable microorganisms used in the invention were not more than five passages removed from the original ATCC culture. As described herein, one passage is defined as the transfer of organisms from an established culture to fresh medium and all transfers are counted.
(§2) Cultures received from the ATCC are resuscitated according to the directions provided by the ATTC. Cells grown in broth were pelleted by centrifugation, resuspended in 1/20th the volume of fresh maintenance broth, and combined with an equal volume of 20% (v/v in water) sterile glycerol. Cells grown on agar were scraped from the surface into the maintenance broth also containing 10% glycerol broth. Small aliquots of the suspension were dispensed into sterile vials and the vials were stored in liquid nitrogen or in a mechanical freezer at a temperature no higher than about −50° C. When a fresh seed-stock vial was required, it was removed and used to inoculate a series of working stock cultures. These working stock cultures were then used periodically (each day in the case of bacteria and yeast) to start the inoculum culture.
(§3) The culture conditions for the inoculum culture is substantially as described in Table IV. For example, suitable media can include but is not limited to, Soybean-Casein Digest or Sabouraud Dextrose Agar Medium. […]
(§4) The suspension should be refrigerated if it is not used within 2 hours. To confirm the initial cfu per mL estimate, the number of cfu per mL in each suspension was determined using the conditions of media and microbial recovery incubation times listed in Table IV (e.g., from about 3 to about 7 days). This value serves to calibrate the size of inoculum used in the test. The bacterial and yeast suspensions were used within 24 hours of harvest; whereas the fungal preparation can be stored under refrigeration for up to 7 days.
(§5) To determine which alkylglycoside formulations have antibacterial activity, the formulations were prepared in phosphate buffered saline (PBS) at pH 7. As a source of nutrition, either 1.5 mg/mL bovine serum albumin (BSA; see Tables V and VI) or 1 mg/mL of PYY was added (see Table VII) to the medium. BSA (CAS Number: 9048-46-8) was obtained from Sigma-Aldrich, St. Louis, Mo., USA, n-dodecyl-4-O-α-D-glucopyranosyl-β-D-glucopyranoside and n-tetradecyl-4-O-α-D-glucopyranosyl-β-D-glucopyranoside were obtained from Anatrace Inc., Maumee, Ohio, USA, and PYY was obtained from Bachem California Inc., Torrance, Calif., USA.
(§6) Antibacterial activity of the alkylglycosides were conducted in four sterile, capped bacteriological containers of suitable size into which a sufficient volume of alkylglycoside solution had been transferred. Each container was inoculated with one of the prepared and standardized inoculums and mixed. The volume of the suspension inoculum was between about 0.5% and about 1.0% of the volume of the alkylglycoside solution. […]. To determine the level of inhibition of growth, or reduction of growth based on a logarithmic scale, the initial concentration of viable microorganisms in each test preparation was estimated based on the concentration of microorganisms in each of the standardized inoculum as determined by the plate-count method. The inoculated containers were then incubated at about 22.5° C.±2.5. The growth or non-growth of the microorganisms in each culture/container were again determined at day 14 and day 28. The number of cfu present in each calculation was determined by the plate-count procedure standard in the art for the applicable intervals. The change in the orders of magnitude of bacterium and/or fungi was then determined by subtracting the first calculated log 10 values of the concentrations of cfu per mL present at the start or beginning (e.g., day 0), from the log 10 values of the concentration of cfu per mL for each microorganism at the applicable test intervals (e.g., day 14 and day 28; see Tables V, VI and VII).

[5] = system: Staphylococcus aureus (ATCC No. 6538); assay: as above; type: cell-based; conditions: […]
From the text: as §1, §2, §3, §4, §5, §6

[6] = system: Escherichia coli (ATCC No. 8739); assay: as above; type: cell-based; conditions: […]
From the text: as §1, §2, §3, §4, §5, §6

[7] = system: Aspergillus niger (ATCC No. 16404); assay: as above; type: cell-based; conditions: […]
From the text: as §1, §2, §3, §4, §5, §6

[8] = system: blood D-glucose; assay: Insulin eye drops with absorption enhancer in xylazine/ketamine-anesthetized hyperglycemic rats, blood D-glucose; type: in vivo, rat; conditions: for hypoglycemic effect / insulin absorption enhancement: eye drops 0.2% insulin + 0.5% enhancer; for Blood Glucose Concentrations: insulin eye drops + 0.50% dodecyl maltoside
[9] = Intranasal triptans with alkylsaccharide in rats, plasma levels by HPLC; type: in vivo;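 also: rats in groups of eight given 20 µL into one nostril, dose expressed as triptan free base, Cmax and Tmax read from plasma concentration–time curves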
[10] = system: mucociliary surfaces; conditions: concentrations far below those used in intranasal formulations; cited from earlier work
[11] = system: blood glucose; assay: Intranasal insulin in […] TDM, anesthesia-induced hyperglycemia model; type: in vivo, mouse; conditions: intranasal insulin alone, minus […] TDM
From the text: Intranasal administration of drugs or agents are possible in animal models e.g. mice and rats, although the nasal opening in is very small. In the experiments and results described herein, an anesthesia-induced hyperglycemia model was used (described in Examples above). Hyperglycemic animals were induced by an intraperitoneal (IP) injection containing xylazine-ketamine and blood glucose levels were monitored over a period of time. Immediately after the xylazine-ketamine injection, there was an increase in the blood glucose levels as shown in FIG. 2 (closed dark circles), and blood glucose levels were about 450 mg/dl. […] Blood glucose levels peak to about 482 mg/dl by 30 minutes after the xylazine-ketamine injection (FIG. 2). […] At about the 75 minute time point, blood glucose levels gradually returned to the baseline level in a normoglycemic mouse, or about 80-100 mg/dl.

[12] = whole-swallowed tablet, cited from earlier work
[13] = Naratriptan 0.22 mg/kg intranasal, alkylsaccharide 0.02%
[14] = Naratriptan 0.22 mg/kg intranasal, alkylsaccharide 0.05%
[15] = Naratriptan 0.22 mg/kg intranasal, alkylsaccharide 0.1%
[16] = Naratriptan 0.22 mg/kg intranasal, alkylsaccharide 0.5%
[17] = Naratriptan 0.22 mg/kg intranasal, alkylsaccharide 2%
[18] = Sumatriptan 6.2 mg/kg intranasal, alkylsaccharide 0.02%
[19] = Sumatriptan 6.2 mg/kg intranasal, alkylsaccharide 0.05%
[20] = Sumatriptan 6.2 mg/kg intranasal, alkylsaccharide 0.1%
[21] = Sumatriptan 6.2 mg/kg intranasal, alkylsaccharide 0.5%
[22] = Sumatriptan 6.2 mg/kg intranasal, alkylsaccharide 2%

CCCCCCCCCCCC(=O)OC[C@H]1O[C@H](O[C@]2(CO)O[C@H](CO)[C@@H](O)[C@@H]2O)[C@H](O)[C@@H](O)[C@@H]1O [sucrose dodecanoate]
irritation of the nasal mucosa [1]: no observable irritation

PYY: gut hormone fragment peptide PYY3-36
reduction of food eaten [2]: 30%

COc1ccc2[nH]cc(CCNC(C)=O)c2c1 [melatonin, 5-methoxy-N-acetyltryptamine]
bioavailability (estimated) ([3]; oral administration): 30-50% | absolute bioavailability ([3]; oral tablets, normal healthy volunteers, DeMuro et al. (2000)): approximately 15%

CCCCCCCCCCCCO[C@@H]1O[C@H](CO)[C@@H](O[C@H]2O[C@H](CO)[C@@H](O)[C@H](O)[C@H]2O)[C@H](O)[C@H]1O [dodecyl maltoside, n-dodecyl-4-O-α-D-glucopyranosyl-β-D-glucopyranoside]
Log Reduction of Microorganisms, Day 14 ([4]; BSA): 3.0 orders of orders of magnitude reduction | Log Reduction of Microorganisms, Day 28 ([4]; BSA): ≧5.3 orders of orders of magnitude reduction | Log Reduction, Day 14 ([4]; PYY): ≧4.5 orders of orders of magnitude reduction | Log Reduction, Day 28 ([4]; PYY): ≧4.5 orders of orders of magnitude reduction | Log Reduction of Microorganisms, Day 14 ([5]; BSA): ≧5.2 orders of orders of magnitude reduction | Log Reduction of Microorganisms, Day 28 ([5]; BSA): ≧5.2 orders of orders of magnitude reduction | Log Reduction, Day 14 ([5]; PYY): ≧4.9 orders of orders of magnitude reduction | Log Reduction, Day 28 ([5]; PYY): ≧4.9 orders of orders of magnitude reduction | Log Reduction of Microorganisms, Day 28 ([6]; BSA): 0.1 orders of orders of magnitude reduction | Log Reduction, Day 14 ([6]; PYY): ≧5 orders of orders of magnitude reduction | Log Reduction, Day 28 ([6]; PYY): ≧5 orders of orders of magnitude reduction | Log Reduction of Microorganisms, Day 14 ([7]; BSA): 0.7 orders of orders of magnitude reduction | Log Reduction, Day 14 ([7]; PYY): 4.7 orders of orders of magnitude reduction | Log Reduction, Day 28 ([7]; PYY): 4.7 orders of orders of magnitude reduction | hypoglycemic effect / insulin absorption enhancement [8]: equally effective | hypoglycemic effect / insulin absorption enhancement ([8]; listed as dodecyl-β3-D-maltoside): prompt and sustained fall in blood glucose levels | Blood Glucose Concentrations ([8]; time 0 min): 379 ± 4 mg/dL | Blood Glucose Concentrations ([8]; time 30 min): 297 ± 18 mg/dL | Blood Glucose Concentrations ([8]; time 60 min): 188 ± 25 mg/dL | Blood Glucose Concentrations ([8]; time 90 min): 141 ± 13 mg/dL | Blood Glucose Concentrations ([8]; time 120 min): 123 ± 5 mg/dL | Blood Glucose Concentrations ([8]; time −10 min): 366 ± 12 mg/dL | Blood Glucose Concentrations ([8]; time −20 min): 375 ± 9 mg/dL | Ratio Cmax(alkylsacch)/Cmax(No alkylsacch) [9, 13]: ≦1.5 | Tmax [9, 13]: ~60 to 120 min | Ratio Cmax(alkylsacch)/Cmax(No alkylsacch) [9, 14]: ≧1.5 | Tmax [9, 14]: ~5 to 15 min | Ratio Cmax(alkylsacch)/Cmax(No alkylsacch) [9, 15]: ≧1.5 | Tmax [9, 15]: ~5 to 15 min | Ratio Cmax(alkylsacch)/Cmax(No alkylsacch) [9, 16]: ≧1.5 | Tmax [9, 16]: ~5 to 15 min | Ratio Cmax(alkylsacch)/Cmax(No alkylsacch) [9, 17]: ≧1.5 | Tmax [9, 17]: ~5 to 15 min | Tmax ([9]; Rizatriptan […] intranasal, alkylsaccharide 0.02%): ~60 to 120 min | Tmax ([9]; Rizatriptan […] intranasal, alkylsaccharide 0.05%): ~5 to 15 min | Tmax ([9]; Rizatriptan […] intranasal, alkylsaccharide 0.1%): ~5 to 15 min | Tmax ([9]; Rizatriptan […] intranasal, alkylsaccharide 0.5%): ~5 to 15 min | Tmax ([9]; Rizatriptan […] intranasal, alkylsaccharide 2%): ~5 to 15 min | Ratio Cmax(alkylsacch)/Cmax(No alkylsacch) [9, 18]: ≦1.5 | Tmax [9, 18]: ~60 to 120 min | Ratio Cmax(alkylsacch)/Cmax(No alkylsacch) [9, 19]: ≧1.5 | Tmax [9, 19]: ~5 to 15 min | Ratio Cmax(alkylsacch)/Cmax(No alkylsacch) [9, 20]: ≧1.5 | Tmax [9, 20]: ~5 to 15 min | Ratio Cmax(alkylsacch)/Cmax(No alkylsacch) [9, 21]: ≧1.5 | Tmax [9, 21]: ~5 to 15 min | Ratio Cmax(alkylsacch)/Cmax(No alkylsacch) [9, 22]: ≧1.5 | Tmax [9, 22]: ~5 to 15 min

benzalkonium chloride
toxicity to mucociliary surfaces [10]: significant disruption of the mucociliary surfaces

insulin alone: insulin (Humalog) given intranasally without TDM
return to normoglycemic levels [11]: never return to normoglycemic levels | time mark at which blood glucose starts to decline [11]: ~120 min

Cc1cc2c(s1)Nc1ccccc1N=C2N1CCN(C)CC1 [olanzapine, Olanzapine]
time to peak concentrations ([12]; oral dose): approximately 6 hours | dose metabolized by first pass before reaching systemic circulation [12]: approximately 40%

From US9283280B2, “Compositions for drug administration” (Aegis Therapeutics, LLC, priority 2008, dated 2016)
